The text below walks through data of patent US20230073777A1, “CYCLIC-AMP RESPONSE ELEMENT BINDING PROTEIN (CBP) AND/OR ADENOVIRAL E1A BINDING PROTEIN OF 300 KDA (P300) DEGRADATION COMPOUNDS AND METHODS OF USE” (CULLGEN (SHANGHAI), INC., priority 2019, published 2023).

The test system of experiment [1] is LNCaP cells. The experiment in a line: LNCaP cell viability assay (CellTiter-Glo). It counts as cell-based. As to conditions: Homo sapiens, 72 h; LNCaP prostate cancer cell viability inhibition, 3 days, CellTiter-Glo (Table 3). The procedure, abridged:
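LNCaP cells, 5000/well, exposed to compounds in 12-point 3-fold serial dilution (top 10 μM) for 3 days. Viability by CellTiter-Glo luminescence, normalized to untreated cells; IC50 by least-squares nonlinear regression.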

Experiment [2] concerns the target P300 (Homo sapiens, UniProt Q09472). The experiment in a line: Immunoblotting of P300 protein levels in LNCaP or 22RV1 cells. In kind it is cell-based. Set-up: LNCaP or 22RV1 cells that express CBP/P300 proteins were treated with GNE-781 or the bivalent compounds; endogenous in cells; host or cells: LNCaP (clone FGC) or 22RV1 cells. As to conditions: percentage of inhibition of p300 at 10 nM (Table 3); read-out: Degradation (10 nM). In a few lines:
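LNCaP or 22RV1 cells treated with compounds for indicated hours, DMSO as negative control. RIPA lysates resolved by SDS-PAGE and immunoblotted for P300 or CBP, tubulin or vinculin as loading control; chemiluminescent bands quantitated.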

Sequence of P300 (Q09472 whole entry): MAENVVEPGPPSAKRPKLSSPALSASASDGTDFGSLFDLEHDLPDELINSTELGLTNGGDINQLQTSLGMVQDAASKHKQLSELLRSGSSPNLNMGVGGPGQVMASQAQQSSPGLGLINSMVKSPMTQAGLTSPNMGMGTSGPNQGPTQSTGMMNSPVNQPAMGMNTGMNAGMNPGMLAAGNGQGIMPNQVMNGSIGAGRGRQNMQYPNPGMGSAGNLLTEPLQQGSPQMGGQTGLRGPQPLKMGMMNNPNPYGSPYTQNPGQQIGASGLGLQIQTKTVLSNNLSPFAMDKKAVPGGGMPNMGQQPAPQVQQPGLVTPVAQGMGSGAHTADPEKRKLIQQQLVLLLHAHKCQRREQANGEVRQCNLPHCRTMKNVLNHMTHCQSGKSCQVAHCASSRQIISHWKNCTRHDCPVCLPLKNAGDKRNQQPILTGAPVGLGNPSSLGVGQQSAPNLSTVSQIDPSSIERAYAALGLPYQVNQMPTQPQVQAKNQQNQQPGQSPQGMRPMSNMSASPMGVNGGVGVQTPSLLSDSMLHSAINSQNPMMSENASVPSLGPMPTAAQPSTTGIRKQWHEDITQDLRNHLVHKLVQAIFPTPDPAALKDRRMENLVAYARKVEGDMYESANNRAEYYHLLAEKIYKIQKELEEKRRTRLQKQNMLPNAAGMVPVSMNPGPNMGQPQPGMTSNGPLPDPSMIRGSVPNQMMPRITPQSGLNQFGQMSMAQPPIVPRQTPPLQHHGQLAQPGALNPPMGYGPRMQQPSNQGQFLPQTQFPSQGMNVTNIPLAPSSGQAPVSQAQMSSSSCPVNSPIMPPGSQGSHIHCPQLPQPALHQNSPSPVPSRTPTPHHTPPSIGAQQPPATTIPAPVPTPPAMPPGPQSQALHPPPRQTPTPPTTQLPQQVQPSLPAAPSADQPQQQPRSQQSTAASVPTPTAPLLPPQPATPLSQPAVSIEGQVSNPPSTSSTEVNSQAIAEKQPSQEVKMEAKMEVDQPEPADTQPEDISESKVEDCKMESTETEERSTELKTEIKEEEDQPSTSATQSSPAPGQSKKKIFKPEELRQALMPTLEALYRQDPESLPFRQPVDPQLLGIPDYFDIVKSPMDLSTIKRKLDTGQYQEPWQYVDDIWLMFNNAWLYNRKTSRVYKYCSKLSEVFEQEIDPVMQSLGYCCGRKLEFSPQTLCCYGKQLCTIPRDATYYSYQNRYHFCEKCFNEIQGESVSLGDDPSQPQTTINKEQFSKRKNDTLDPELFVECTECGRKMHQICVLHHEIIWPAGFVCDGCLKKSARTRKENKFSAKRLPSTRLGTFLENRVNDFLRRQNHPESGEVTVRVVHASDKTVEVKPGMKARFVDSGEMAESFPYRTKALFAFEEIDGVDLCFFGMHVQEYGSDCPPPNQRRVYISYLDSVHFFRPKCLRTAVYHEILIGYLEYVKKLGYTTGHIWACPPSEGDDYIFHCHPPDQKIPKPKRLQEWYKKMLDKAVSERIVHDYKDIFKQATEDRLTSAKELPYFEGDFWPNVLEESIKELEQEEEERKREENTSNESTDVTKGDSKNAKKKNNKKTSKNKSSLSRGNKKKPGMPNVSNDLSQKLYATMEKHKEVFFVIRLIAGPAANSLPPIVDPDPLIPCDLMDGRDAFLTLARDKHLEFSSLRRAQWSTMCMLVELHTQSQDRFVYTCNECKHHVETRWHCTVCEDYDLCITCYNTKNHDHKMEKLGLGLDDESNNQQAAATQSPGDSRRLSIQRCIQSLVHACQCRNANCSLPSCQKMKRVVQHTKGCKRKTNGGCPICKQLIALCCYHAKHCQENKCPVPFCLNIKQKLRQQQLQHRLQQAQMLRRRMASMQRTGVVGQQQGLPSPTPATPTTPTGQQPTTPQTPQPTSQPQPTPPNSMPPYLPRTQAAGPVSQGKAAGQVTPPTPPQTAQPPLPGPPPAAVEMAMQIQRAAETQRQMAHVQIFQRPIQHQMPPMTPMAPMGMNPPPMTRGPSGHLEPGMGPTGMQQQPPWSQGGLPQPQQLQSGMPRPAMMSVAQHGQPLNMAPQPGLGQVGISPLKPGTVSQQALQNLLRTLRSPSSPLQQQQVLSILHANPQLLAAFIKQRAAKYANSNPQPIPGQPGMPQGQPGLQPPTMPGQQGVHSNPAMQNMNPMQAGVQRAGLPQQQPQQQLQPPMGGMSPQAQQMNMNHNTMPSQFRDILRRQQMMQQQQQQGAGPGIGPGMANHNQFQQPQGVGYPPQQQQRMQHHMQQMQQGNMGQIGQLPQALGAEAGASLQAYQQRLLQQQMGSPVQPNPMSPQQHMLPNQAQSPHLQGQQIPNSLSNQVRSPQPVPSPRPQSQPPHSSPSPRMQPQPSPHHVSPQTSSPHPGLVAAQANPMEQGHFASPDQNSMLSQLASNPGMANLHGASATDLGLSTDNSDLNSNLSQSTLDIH

Regarding `CNC(=O)N1CCc2c(c(N3CCCc4cc(-c5cnn(C)c5)c(C(F)F)cc43)nn2C2CCN(C(=O)CCCC(=O)N[C@H](C(=O)N3C[C@H](O)C[C@H]3C(=O)NCc3ccc(-c4scnc4C)cc3)C(C)(C)C)CC2)C1` [P-057, 3-(7-(Difluoromethyl)-6-(1-methyl-1H-pyrazol-4-yl)-3,4-dihydroquinolin-1(2H)-yl)-1-(1-(5-(((S)-1-((2S,4R)-4-hydroxy-2-((4-(4-methylthiazol-5-yl)benzyl)carbamoyl)pyrrolidin-1-yl)-3,3-dimethyl-1-oxobutan-2-yl)amino)-5-oxopentanoyl)piperidin-4-yl)-N-methyl-1,4,6,7-tetrahydro-5H-pyrazolo[4,3-c]pyridine-5-carboxamide], the midpoint of inhibition in experiment [1], the IC50, lay at 76.6 nM. In experiment [2], the inhibition at 0.01 µM was below 20%.
The compound `CNC(=O)N1CCc2c(c(N3CCCc4cc(-c5cnn(C)c5)c(C(F)F)cc43)nn2C2CCN(C(=O)CCCCC(=O)N[C@H](C(=O)N3C[C@H](O)C[C@H]3C(=O)NCc3ccc(-c4scnc4C)cc3)C(C)(C)C)CC2)C1` [P-058, 3-(7-(Difluoromethyl)-6-(1-methyl-1H-pyrazol-4-yl)-3,4-dihydroquinolin-1(2H)-yl)-1-(1-(6-(((S)-1-((2S,4R)-4-hydroxy-2-((4-(4-methylthiazol-5-yl)benzyl)carbamoyl)pyrrolidin-1-yl)-3,3-dimethyl-1-oxobutan-2-yl)amino)-6-oxohexanoyl)piperidin-4-yl)-N-methyl-1,4,6,7-tetrahydro-5H-pyrazolo[4,3-c]pyridine-5-carboxamide] returned a 50% inhibitory concentration (IC50) in experiment [1] of 67.8 nM. For the same compound, in experiment [2], the inhibition at 0.01 µM was below 20%.
`CNC(=O)N1CCc2c(c(N3CCCc4cc(-c5cnn(C)c5)c(C(F)F)cc43)nn2C2CCN(C(=O)CCCCCC(=O)N[C@H](C(=O)N3C[C@H](O)C[C@H]3C(=O)NCc3ccc(-c4scnc4C)cc3)C(C)(C)C)CC2)C1` [P-059, 3-(7-(Difluoromethyl)-6-(1-methyl-1H-pyrazol-4-yl)-3,4-dihydroquinolin-1(2H)-yl)-1-(1-(7-(((S)-1-((2S,4R)-4-hydroxy-2-((4-(4-methylthiazol-5-yl)benzyl)carbamoyl)pyrrolidin-1-yl)-3,3-dimethyl-1-oxobutan-2-yl)amino)-7-oxoheptanoyl)piperidin-4-yl)-N-methyl-1,4,6,7-tetrahydro-5H-pyrazolo[4,3-c]pyridine-5-carboxamide]: in experiment [1], the IC50 is 60.6 nM. Moreover, the inhibition at 0.01 µM in experiment [2] is below 20%.
Turning to `CNC(=O)N1CCc2c(c(N3CCCc4cc(-c5cnn(C)c5)c(C(F)F)cc43)nn2C2CCN(C(=O)CCCCCCC(=O)N[C@H](C(=O)N3C[C@H](O)C[C@H]3C(=O)NCc3ccc(-c4scnc4C)cc3)C(C)(C)C)CC2)C1` [P-060, 3-(7-(Difluoromethyl)-6-(1-methyl-1H-pyrazol-4-yl)-3,4-dihydroquinolin-1(2H)-yl)-1-(1-(8-(((S)-1-((2S,4R)-4-hydroxy-2-((4-(4-methylthiazol-5-yl)benzyl)carbamoyl)pyrrolidin-1-yl)-3,3-dimethyl-1-oxobutan-2-yl)amino)-8-oxooctanoyl)piperidin-4-yl)-N-methyl-1,4,6,7-tetrahydro-5H-pyrazolo[4,3-c]pyridine-5-carboxamide], in experiment [1], half-maximal inhibition (IC50) required 59.1 nM. Moreover, in experiment [2], the inhibition at 0.01 µM was below 20%.
As to `CNC(=O)N1CCc2c(c(N3CCCc4cc(-c5cnn(C)c5)c(C(F)F)cc43)nn2C2CCN(C(=O)CCCCCCCC(=O)N[C@H](C(=O)N3C[C@H](O)C[C@H]3C(=O)NCc3ccc(-c4scnc4C)cc3)C(C)(C)C)CC2)C1` [P-061, 3-(7-(Difluoromethyl)-6-(1-methyl-1H-pyrazol-4-yl)-3,4-dihydroquinolin-1(2H)-yl)-1-(1-(9-(((S)-1-((2S,4R)-4-hydroxy-2-((4-(4-methylthiazol-5-yl)benzyl)carbamoyl)pyrrolidin-1-yl)-3,3-dimethyl-1-oxobutan-2-yl)amino)-9-oxononanoyl)piperidin-4-yl)-N-methyl-1,4,6,7-tetrahydro-5H-pyrazolo[4,3-c]pyridine-5-carboxamide], inhibition in experiment [1] was half-maximal at 81.3 nM (IC50). Also, the inhibition at 0.01 µM in experiment [2] was below 20%.
With `CNC(=O)N1CCc2c(c(N3CCCc4cc(-c5cnn(C)c5)c(C(F)F)cc43)nn2C2CCN(C(=O)CCCCCCCCC(=O)N[C@H](C(=O)N3C[C@H](O)C[C@H]3C(=O)NCc3ccc(-c4scnc4C)cc3)C(C)(C)C)CC2)C1` [P-062, 3-(7-(Difluoromethyl)-6-(1-methyl-1H-pyrazol-4-yl)-3,4-dihydroquinolin-1(2H)-yl)-1-(1-(10-(((S)-1-((2S,4R)-4-hydroxy-2-((4-(4-methylthiazol-5-yl)benzyl)carbamoyl)pyrrolidin-1-yl)-3,3-dimethyl-1-oxobutan-2-yl)amino)-10-oxodecanoyl)piperidin-4-yl)-N-methyl-1,4,6,7-tetrahydro-5H-pyrazolo[4,3-c]pyridine-5-carboxamide], the midpoint of inhibition in experiment [1], the IC50, lay at 35 nM. For the same compound, the inhibition at 0.01 µM in experiment [2] is 20 to 50%.
As for `CNC(=O)N1CCc2c(c(N3CCCc4cc(-c5cnn(C)c5)c(C(F)F)cc43)nn2C2CCN(C(=O)CCCCCCCCCC(=O)N[C@H](C(=O)N3C[C@H](O)C[C@H]3C(=O)NCc3ccc(-c4scnc4C)cc3)C(C)(C)C)CC2)C1` [P-063, 3-(7-(Difluoromethyl)-6-(1-methyl-1H-pyrazol-4-yl)-3,4-dihydroquinolin-1(2H)-yl)-1-(1-(11-(((S)-1-((2S,4R)-4-hydroxy-2-((4-(4-methylthiazol-5-yl)benzyl)carbamoyl)pyrrolidin-1-yl)-3,3-dimethyl-1-oxobutan-2-yl)amino)-11-oxoundecanoyl)piperidin-4-yl)-N-methyl-1,4,6,7-tetrahydro-5H-pyrazolo[4,3-c]pyridine-5-carboxamide], the IC50 in experiment [1] was determined as 28.9 nM. Moreover, the inhibition at 0.01 µM in experiment [2] lay within 20 to 50%.
In experiment [1], `CNC(=O)N1CCc2c(c(N3CCCc4cc(-c5cnn(C)c5)c(C(F)F)cc43)nn2C2CCN(C(=O)COCC(=O)N[C@H](C(=O)N3C[C@H](O)C[C@H]3C(=O)NCc3ccc(-c4scnc4C)cc3)C(C)(C)C)CC2)C1` [P-064, 3-(7-(Difluoromethyl)-6-(1-methyl-1H-pyrazol-4-yl)-3,4-dihydroquinolin-1(2H)-yl)-1-(1-(2-(2-(((S)-1-((2S,4R)-4-hydroxy-2-((4-(4-methylthiazol-5-yl)benzyl)carbamoyl)pyrrolidin-1-yl)-3,3-dimethyl-1-oxobutan-2-yl)amino)-2-oxoethoxy)acetyl)piperidin-4-yl)-N-methyl-1,4,6,7-tetrahydro-5H-pyrazolo[4,3-c]pyridine-5-carboxamide] returned a half-inhibitory concentration (IC50) of 57.5 nM. Besides, the inhibition at 0.01 µM in experiment [2] was below 20%.
On the same counts, the results for `CNC(=O)N1CCc2c(c(N3CCCc4cc(-c5cnn(C)c5)c(C(F)F)cc43)nn2C2CCN(C(=O)COCCOCC(=O)N[C@H](C(=O)N3C[C@H](O)C[C@H]3C(=O)NCc3ccc(-c4scnc4C)cc3)C(C)(C)C)CC2)C1` [P-066, 3-(7-(Difluoromethyl)-6-(1-methyl-1H-pyrazol-4-yl)-3,4-dihydroquinolin-1(2H)-yl)-1-(1-(2-(2-(2-(((S)-1-((2S,4R)-4-hydroxy-2-((4-(4-methylthiazol-5-yl)benzyl)carbamoyl)pyrrolidin-1-yl)-3,3-dimethyl-1-oxobutan-2-yl)amino)-2-oxoethoxy)ethoxy)acetyl)piperidin-4-yl)-N-methyl-1,4,6,7-tetrahydro-5H-pyrazolo[4,3-c]pyridine-5-carboxamide] are 135 nM and below 20%.
